Measurements published in US12338264B2, “Crystalline potassium salt of 2-O-α-D-glucosyl-L-ascorbic acid and method for producing the same” (NAGASE VIITA CO., LTD., priority 2019, dated 2025).

How the values were obtained:
[1] = pH of 1% by mass aqueous solution; format: physicochemical; conditions: dissolved in deionized water
Procedure: 1% by mass of aqueous solution of the crystal obtained in Experiment 1 was prepared and its pH was measured.
A commercially available particulate composition containing anhydrous crystalline ascorbic acid 2-glucoside (product name “Ascofresh” (registered trademark), commercialized by Hayashibara Co., Ltd., Okayama, Japan) and a hydrous crystalline potassium salt of ascorbic acid 2-glucoside, obtained by the method in the Experiment 1 were made into compositions with the ratios by mass ranging from 100:0 to 0:100 as shown in Table 3. Each of the resulting compositions was dissolved in deionized water to give a concentration of 1% by mass, following by measuring the pHs of the resulting solutions.

[2] = Hygroscopicity: mass increase on storage at 75.2% relative humidity; format: physicochemical; conditions: relative humidity 75.2%; for Increase rate of mass: at room temperature, after storage for 24 hours
Procedure: An experiment was carried out to compare the hygroscopicity of both the hydrous crystalline potassium salt of ascorbic acid 2-glucoside, obtained by the method in the Experiment 1, and the hydrous crystalline sodium salt of ascorbic acid 2-glucoside, obtained by the method described in Patent Literature 10. That is, 0.5 g each of the hydrous crystalline potassium salt of ascorbic acid 2-glucoside and the hydrous crystalline sodium salt of ascorbic acid 2-glucoside were weighted and stored in a desiccator conditioned to 75.2% relative humidity (RH) using saturated salt solution for 24 hours at room temperature. After that, the mass of each was measured, the mass increased by moisture absorption was determined, and the increase rate of mass {(Mass increased by storage)/(Mass at the beginning of storage)×100} (% by mass) was determined.

pH of 1% by mass aqueous solution [1]	Increase rate of mass [2]	Increase rate of mass relative to that of the hydrous crystalline sodium salt of ascorbic acid 2-glucoside ([2]; room temperature, 24 hours)	Molecule
2.2	–	–	O=C1O[C@H]([C@@H](O)CO)C(O)=C1O[C@H]1O[C@H](CO)[C@@H](O)[C@H](O)[C@H]1O [2-O-α-D-Glucosyl-L-ascorbic acid]
12.7	9.1 % by mass	under 60%	O=C1O[C@H]([C@@H](O)CO)C([O-])=C1O[C@H]1O[C@H](CO)[C@@H](O)[C@H](O)[C@H]1O.[K+] [hydrous crystalline potassium salt of ascorbic acid 2-glucoside]
–	15.8 % by mass	–	hydrous crystalline sodium salt of ascorbic acid 2-glucoside [reference compound]
